US10231933B2, “Enteric coated, soluble creatine and polyethylene glycol composition for enhanced skeletal uptake of oral creatine” (CRYXA LLC, priority 2007, dated 2019)

Columns and labels:
[1] = Blood chemistries pre- and post-supplementation; format: in vivo, human; design: ALT (SGPT): unit not given here
[2] = known; cited from earlier work
[3] = Muscle biopsy (vastus lateralis) ATP, creatine phosphate and creatine concentrations pre- and post-supplementation; format: in vivo, human
Procedure: The participants selected had the following characteristics:
Pre and post muscle biopsies were obtained from the vastus lateralis muscle. Samples were immediately frozen in liquid nitrogen and stored at −80° C. for later analysis. The frozen samples were weighed to the nearest 0.1 mg, freeze dried for 8 hours and reweighed. The tissue samples were extracted and then analyzed for creatine, creatine phosphate, and ATP content via […].

[4] = male, human, blood, oral, 20 gm/day
[5] = Post 5 days supplementation, muscle biopsy
[6] = post-suppl., 5 days, control 20 gm/day, experimental 10 gm/day creatine equivalent

CN(CC(=O)O)C(=N)N.O [creatine•H2O, creatine monohydrate]
time of peak blood concentration post-ingestion (5 hour sampling, experimental peak may not have been fully achieved): two hours
Integrated area under curve (5 hr sampling period post-ingestion): 91.8 ± 5.5 mg · dL^−1 · 5 hrs^−1
Circulating concentrations of creatine (Pre ingestion): 0.47 ± 0.35 mg/dL
concentration at 15 min [4]: 40.8 ± 11.4 µg/mL
concentration at 30 min [4]: 138 ± 18.6 µg/mL
concentration at 1 h [4]: 208 ± 18.7 µg/mL
concentration at 2 h [4]: 260 ± 29.6 µg/mL
concentration at 3 h [4]: 242 ± 12.9 µg/mL
concentration at 4 h [4]: 162 ± 11.3 µg/mL
concentration at 5 h [4]: 102 ± 8.5 µg/mL
time by which blood creatine concentrations increased significantly (post-ingestion): ≤ 15 min
peak blood concentration of creatine (within five hours post-ingestion): 25.99 ± 2.96 mg/dL
A/G Ratio (ratio) ([1]; Post): 1.88 ± 0.06 ratio
ALT (SGPT) ([1]; Post): 20.9 ± 4.1
AST (SGOT) ([1]; Post): 23.3 ± 2.1 IU · L^−1
Albumin, Serum ([1]; Post): 4.5 ± 0.1 g/dL
Alk. Phosphatase ([1]; Post): 85.4 ± 9.3 IU · L^−1
BUN ([1]; Post): 17.9 ± 1.8 mg/dL
BUN/Creatinine (ratio) ([1]; Post): 16.3 ± 1.4 ratio
Bilirubin, Total ([1]; Post): 0.6 ± 0.1 mg/dL
Calcium, Serum ([1]; Post): 9.7 ± 0.1 mg/dL
Carbon Dioxide ([1]; Post): 25.8 ± 0.7 mM · L^−1
Chloride, Serum ([1]; Post): 101.9 ± 0.7 mM · L^−1
Creatinine, Serum ([1]; Post): 1.09 ± 0.07 mg/dL
Globulin, Serum ([1]; Post): 2.4 ± 0.1 g/dL
Glucose, Serum ([1]; Post): 82.6 ± 4.3 mg/dL
Iron, Serum ([1]; Post): 103.3 ± 14.2 µg/dL
LDH ([1]; Post): 157.9 ± 8.2 IU · L^−1
Phosphorus, Serum ([1]; Post): 4.3 ± 0.3 mg/dL
Potassium, Serum ([1]; Post): 4.4 ± 0.1 mM · L^−1
Protein, Serum ([1]; Post): 6.9 ± 0.1 g/dL
Sodium, Serum ([1]; Post): 138.6 ± 0.6 mM · L^−1
Uric Acid, Serum ([1]; Post): 4.7 ± 0.2 mg/dL
A/G Ratio (ratio) ([1]; Pre): 1.77 ± 0.06 ratio
ALT (SGPT) ([1]; Pre): 24.1 ± 4.5
AST (SGOT) ([1]; Pre): 25.3 ± 3.6 IU · L^−1
Albumin, Serum ([1]; Pre): 4.5 ± 0.1 g/dL
Alk. Phosphatase ([1]; Pre): 78.7 ± 10.1 IU · L^−1
BUN ([1]; Pre): 16.4 ± 1.4 mg/dL
BUN/Creatinine (ratio) ([1]; Pre): 17.8 ± 1.3 ratio
Bilirubin, Total ([1]; Pre): 0.6 ± 0.1 mg/dL
Calcium, Serum ([1]; Pre): 9.9 ± 0.1 mg/dL
Carbon Dioxide ([1]; Pre): 26.7 ± 0.4 mM · L^−1
Chloride, Serum ([1]; Pre): 101.0 ± 0.5 mM · L^−1
Creatinine, Serum ([1]; Pre): 0.93 ± 0.04 mg/dL
Globulin, Serum ([1]; Pre): 2.6 ± 0.1 g/dL
Glucose, Serum ([1]; Pre): 86.7 ± 2.7 mg/dL
Iron, Serum ([1]; Pre): 88.8 ± 10.5 µg/dL
LDH ([1]; Pre): 155.0 ± 6.0 IU · L^−1
Phosphorus, Serum ([1]; Pre): 4.3 ± 0.1 mg/dL
Potassium, Serum ([1]; Pre): 4.3 ± 0.1 mM · L^−1
Protein, Serum ([1]; Pre): 7.1 ± 0.1 g/dL
Sodium, Serum ([1]; Pre): 139.1 ± 0.5 mM · L^−1
Uric Acid, Serum ([1]; Pre): 5.6 ± 0.3 mg/dL
breakdown in the stomach [2]: rapidly breaks down in the stomach to form creatinine
skeletal muscle uptake (comparison of the two) ([3]; 50 g creatine equivalents total (creatine HCl/PEG) vs 100 g total (creatine.H2O)): similar
ATP [3, 5]: 22.7 ± 1.2 μM · gdw^−1
Creatine [3, 5]: 39.2 ± 2.7 μM · gdw^−1
Creatine · ATP^−1 (ratio) [3, 5]: 2.01 ± 0.33 ratio
creatine phosphate [3, 5]: 75.6 ± 4.0 μM · gdw^−1
creatine phosphate/ATP^−1 [3, 5]: 3.34 ± 0.01
ATP ([3]; Pre, muscle biopsy): 21.6 ± 1.4 μM · gdw^−1
Creatine ([3]; Pre, muscle biopsy): 23.0 ± 4.2 μM · gdw^−1
Creatine · ATP^−1 (ratio) ([3]; Pre, muscle biopsy): 1.36 ± 0.36 ratio
creatine phosphate ([3]; Pre, muscle biopsy): 71.7 ± 4.8 μM · gdw^−1
creatine phosphate/ATP^−1 ([3]; Pre, muscle biopsy): 3.33 ± 0.01
muscle concentrations of free creatine and total creatine by the end of the study ([3]; end of 5 days supplementation): significantly elevated
CELLULAR ATP (molar ratio) [3, 6]: 5.07 ± 0.24 molar ratio
UPTAKE EFFICACY [3, 6]: 5.85 ± 1.85
free creatine [3, 6]: 39.2 ± 2.7 μM · gdw^−1
CELLULAR ATP (molar ratio) ([3]; pre-suppl., muscle biopsy): 4.48 ± 0.30 molar ratio
free creatine ([3]; pre-suppl., muscle biopsy): 23.0 ± 4.2 μM · gdw^−1
